Assay [1] has as its system LPS-induced pro-inflammatory cytokines. Description: LPS-induced acute lung injury model in mice, BALF cytokines by ELISA. The note with it: airway LPS 1 µg day 1.
The next assay concerns H5N1 virus. The note with it: co-administration with zanamivir, compared to antiviral treatment alone; cited from earlier work.
For assay [2], the system named is LPS-induced pro-inflammatory cytokines. Description: LPS-induced sepsis model in mice, plasma cytokines by ELISA. It counts as in vivo, Balb/c mice. The note with it: i.p. 1 hour before LPS 10 mg/kg i.p., DEX 3 mg/kg, Nib1 5 mg/kg, 4 hours after LPS. On the procedure: FIGS. 2A and 2B show the cytokine levels of TNFα and IL-6, respectively, in serum as measured by an ELISA kit. […] Whole blood was collected at 4 hours after LPS injection, and the plasma was extracted for ELISA measurement. *indicates P<0.05, **indicates P<0.01, *** indicates P<0.001, and **** indicates P<0.0001.
After 1 hour, all the animals were exposed to lethal dose of LPS (10 mg/kg, 2 mg/mL, i.p., Solarbio L8880). All animals were sacrificed 4 hours after LPS injection for tissue and whole blood collection.
FIGS. 2A and 2B show the cytokine levels of TNFα and IL-6, respectively, in the serum as measured by an ELISA kit. […] Whole blood was collected at 4 hours after LPS injection and plasma was extracted for ELISA measurement. *indicates P<0.05, **indicates P<0.01, *** indicates P<0.001, and **** indicates P<0.0001.
A general note: An ELISA detects its analyte on a solid surface through an enzyme-linked reagent.

Another assay deals with human PBMC. Description: LPS-induced cytokine release in human PBMC, Luminex multiplex cytokine profiling. It counts as cell-based. Particulars: 10 µM 1 h before LPS 100 ng/ml for 4 h; supernatant; relative to DMSO = 100%.
The test system of assay [3] is LPS-induced pro-inflammatory cytokines. Description: Repetitive low dose LPS challenge sepsis-like persistent inflammation model in mice, whole blood cell cytokine RT-qPCR. Particulars: LPS 10 µg/mouse i.p. daily for 4 days, oral DEX 3 mg/kg or Nib1 0.6 mg/kg daily, whole blood cells RT-qPCR. It counts as in vivo, Balb/c mice. From the text: FIGS. 4A, 4B, and 4C show the cytokine levels of IL-1β, IL-6, and TNFα, respectively, in the whole blood cells as measured by RT-qPCR. […] At the end of experiment, whole blood cells were collected and the total RNA was extracted for RT-qPCR measurement of the cytokine mRNA. *indicates P<0.05, **indicates P<0.01, *** indicates P<0.001.
At the end of the experiment, all animals were sacrificed, and whole blood cells were purified by centrifugation and subjected to standard RT-qPCR detection of IL-6 and TNFα mRNA levels according to the manufacturer’s instructions.

The next assay concerns STAT5. Description: STAT5 inhibition in Jurkat cells, immunoblotting of IFNβ-induced STAT5 phosphorylation (pY694).
In assay [4] the test system is RSV-infected lung epithelial cells. The note with it: cited from earlier work.
For the next assay, the system named is H2N2 influenza virus. The note with it: intraperitoneally on days 4 to 10 after exposure to H2N2 influenza virus, following the onset of illness; cited from earlier work.
Where [5] appears, read: 3 mg/kg po qd 4 days, compared to DMSO-treated group, p<0.05.

Consider `CC(=O)OCC(=O)[C@@]1(O)[C@H](C)C[C@H]2[C@@H]3CCC4=CC(=O)C=C[C@]4(C)[C@@]3(F)[C@@H](O)C[C@@]21C` [DEX, dexamethasone acetate], for which, in assay [1] (setting [5]), the “reduction of IL-6 level in bronchoalveolar lavage fluid” value is listed as “about 50%” and the “reduction of TNFα level in bronchoalveolar lavage fluid” value is recorded as “about 50%”.
On to `Nc1ccc(O)c(C(=O)O)c1` [Mesalamine], for which, in the assay on H5N1 virus, the cellular infiltrate result is listed as “diminished cellular infiltrate” and the survival result is listed as “improved survival”.
On to `O=c1[nH]c2ccccc2n1C1CCN(CCCC(c2ccc(F)cc2)c2ccc(F)cc2)CC1` [pimozide, 1-[1-[4,4-bis(4-fluorophenyl)butyl]-4-piperidinyl]-1,3-dihydro-2H-benzimidazole-2-one], for which, in assay [2] (vs DMSO (DEX p<0.0001, Nib1 p<0.01)), the “plasma level of TNFα” value is given as “significantly reduced”. Besides, the “plasma level of IL-6” value in assay [2] (vs DMSO (DEX p<0.01, Nib1 p<0.001)) is “significantly reduced”. In addition, in the assay on human PBMC, the “secretion of IL4” value was “significantly reduced”, the “secretion of IL17A” value is reported as “significantly reduced”, the “secretion of IL23” value was “significantly reduced” and the “secretion of IL-1β” value is “significantly reduced”. In addition, in the assay on human PBMC, the “secretion of IL-6” value is given as “significantly reduced”. The TNFα level result in assay [3] (TNFα returned to basal level) is on record as “no difference was detected”. In addition, the IL-1β level result in assay [3] (vs DMSO (DEX p<0.05, Nib1 p<0.001)) is listed as “significantly reduced”. Moreover, the IL-6 level result in assay [3] (vs DMSO (both p<0.05)) is recorded as “significantly reduced”. Moreover, the “level of IL-6 in bronchoalveolar lavage fluid” value in assay [1] (0.6 mg/kg po qd 4 days, vs DMSO, p<0.001) is listed as “significantly reduced”. Besides, the “level of TNFα in bronchoalveolar lavage fluid” value in assay [1] (0.6 mg/kg po qd 4 days, vs DMSO, p<0.01) is on record as “significantly reduced”. For the same compound, the “reduction of the activation of STAT5 (phosphorylation)” value with STAT5 (Jurkat cells pretreated with 10 µM for 1 hour, then IFNβ 50 ng/ml for 30 min) is “more than 50%”. The Phospho-STAT5 signal result in the assay with STAT5 (Jurkat cells treated with 50 µM, IFNβ 50 ng/ml for 30 min) is on record as “completely undetectable”.
In the case of `CCCCC/C=C/C=C1/C(=O)C=C[C@@H]1C/C=C\CCCC(=O)O` [15d-PGJ2], the “production of IL-1α, IL-6, and TNF cytokines, CXCL8 and CCL5 chemokines, and ICAM-1” value in assay [4] is reported as “decreased production”.
Regarding `Cc1ccc(C)c(OCCCC(C)(C)C(=O)O)c1` [gemfibrozil], the survival entry with H2N2 influenza virus is reported as “significantly increased survival”.

The record behind these values is patent US20230126987A1, “METHODS FOR TREATING CYTOKINE STORM SYNDROME AND RELATED DISEASES” (Generos Biopharma Ltd., priority 2020, published 2023).
